Laboratory results published in a compilation of properties of binary mixtures (doi:10.1039/c3ra40303c).

Test: xn = mol fraction of the nth substance listed
Conditions: 101 kPa

CC(O)C(=O)[O-].C[N+](C)(C)CCO + CCO
viscosity [mPa·s]
Conditions	x2 = 0	x2 = 0.1039	x2 = 0.2011	x2 = 0.2996	x2 = 0.3999	x2 = 0.5003	x2 = 0.601	x2 = 0.7013	x2 = 0.7987	x2 = 0.8996
293.15 K	818	553	365	–	132.5	73.48	39.35	–	–	3.602
298.15 K	559	388	263.7	165.1	101.5	57.11	31.94	14.73	–	3.207
303.15 K	393	277.4	193.2	123.9	78.06	45.19	–	12.36	6.351	–
308.15 K	283.9	203.7	–	94.9	61.01	36.35	21.38	10.49	5.524	2.548
313.15 K	209.9	152.9	110.8	74.08	48.57	29.65	17.83	8.99	4.841	2.286
318.15 K	–	117.2	86.3	58.82	39.27	24.51	–	7.773	4.27	2.059
323.15 K	122.3	–	68.43	47.45	32.22	–	12.83	6.779	–	1.862
328.15 K	95.9	–	55.07	38.8	26.76	17.33	–	5.952	–	1.685
333.15 K	76.5	–	44.95	32.13	22.49	14.8	–	5.255	3.041	1.525
338.15 K	61.9	47.9	37.15	26.9	–	12.76	8.445	4.66	2.747	1.38
343.15 K	50.76	39.73	31.06	22.76	16.36	11.09	7.459	4.145	2.498	1.265
